Source: patent US12102633B2, “Spirolactone compounds” (Quixgen, Inc., priority 2017, dated 2024)
Entries after “also recorded” stand apart in the source; their conditions may differ.

Experiments:
[1] = system: T1, Mouse ACC (ACC protein purified from liver); assay: Mouse ACC enzymatic activity assay; type: biochemical; settings: read-out: EA-CoA mACC IC50
T1 construct: ACC protein was purified by taking advantage of the biotinylation in the carboxylase domain
Procedure: ACC protein was purified by taking advantage of the biotinylation in the carboxylase domain. Male C57BL/6J mice (Jackson Laboratory) at 8-12 weeks of age were euthanized by using CO2 inhalation method and liver was immediately frozen on dry ice. To 100 mg liver was added 1 mL ice-cold tissue lysis buffer (20 mM Tris-HCl pH 7.5, 150 mM NaCl, 1 mM Na2EDTA, 1 mM EGTA, 1% Triton, 2.5 mM sodium pyrophosphate, 1 mM 3-glycerophosphate, 1 mM Na3VO4, 1 μg/mL leupeptin, 1 tablet of protease inhibitor cocktail (Roche) per 10 mL lysis buffer) followed by homogenization on ice with Power Gen 125 homogenizer (Fisher Scientific). After 30 min incubation on ice, tissue lysate was passed through a 10 mL syringe with 18½ G needle for 10 times to shear DNA. The lysate was then subject to 17.5%-35% saturated ammonium sulfate precipitation by adding 880 mg ammonium sulfate powder (Sigma) to 10 mL liver lysate in 10 min with stirring on ice. Sample was centrifuged at 14,000 rpm (Eppendorf) at 4° C. for 10 min and supernatant was saved for further precipitation by adding 880 mg ammonium sulfate powder to 10 ml supernatant in 10 min with stirring on ice. Sample was centrifuged at 14,000 rpm at 4° C. for 10 min. Supernatant was discarded and pellet was dissolved in 10 mL sample buffer (100 mM Tris-HCl, pH 7.5, 1 mM EDTA, 0.1 mM DTT, 0.5 M NaCl, and 5% glycerol). The sample was then added with 1 mL of Strep Mag beads slurry (Genscript) and rotated at 4° C. for 1 hour. Supernatant was discarded and beads were washed with sample buffer for 3 times. Protein was then eluted by adding 10 mL of 2 mM biotin (Promega) prepared in sample buffer. The eluate was then dialyzed at 4° C. for 1 hour by using Slide-A-Lyzer™ Dialysis Cassettes 10K MWCO (Thermo Fisher Scientific) against 3 changes of 200 mL dialysis buffer (50 mM HEPES, pH 7.5, 0.1 mM DTT, 1.0 mM EDTA, and 10% glycerol). Total protein concentration was then quantitated by using BCA protein assay kit (Pierce).
For ACC enzymatic activity assay, 1 μL serial diluted compounds prepared in DMSO in duplicate were mixed with 8 μL dialyzed sample at 37° C. for 10 min. Ninety one L of reaction buffer (50 mM HEPES pH 7.5, 10 mM MgCl2, 2.0 mM DTT, 0.5 mM acetyl-CoA, 4.0 mM ATP, 15 mM ^13C-NaHCO3, 0.75 mg/mL BSA, 0.5 mM sodium citrate) was added to the tube and mixed thoroughly. After incubation at 37° C. for 1 hour, 300 μl ice-cold quenching buffer (acetonitrile:methanol=1:1, 20 μM carbutamide as internal standard) was added to each tube and mixed well to terminate the reaction. Samples were centrifuged at 14,000 rpm for 10 min (Eppendorf) and supernatant was loaded onto LC-MS/MS for quantitation of malonyl-^13C-CoA (Gao et al., Journal of chromatography B, Analytical technologies in the biomedical and life sciences 853, 303-313 (2007)).
Shimadzu LC system was used for sample analysis consisting of system controller (Shimadzu CBM-20A), autosampler (Shimadzu SIL-20A), pump A and B (Shimadzu LC-20AD), column oven (Shimadzu CTO-20A), and analytical column (Phenomenex Gemini 5u C18 11A, 100×2 mm). LC was running at 200 μL/min in the binary gradient mode with mobile phase A (5 mM Ammonium Acetate and 5 mM DMBA in water (1,3-Dimethylbutylamine)) and B (methanol). The samples were analyzed on an AB Sciex QTrap4000 LC-MS/MS triple quadrupole mass spectrometer (Applied Biosystems). Malonyl-CoA and malonyl-13C-CoA were monitored in positive ion mode following MRM transitions at 854.2/347.1 and 855.1/246.1, respectively. The product and internal standard were coeluted to the mass spectrometer in 3 s with 50% H2O, 25% MeCN, 25% acetone, and 5 mM ammonium acetate. Ion chromatograms were integrated using the Analyst 1.5.2 software. Peak area ratios were compared against a standard curve and final cellular concentration of malonyl-CoA or production rate of malonyl-13C-CoA was calculated as pmoles/mg protein per minute.

[2] = system: Human sebocytes; assay: Proliferation of human sebocytes; type: cell-based; settings: 24 hours, MTT, read-out: AP-Sebo IC50
Procedure: Human sebocytes (Celprogen) and keratinocytes (ATCC) were grown in 96-well culture microplate (Coming) with growth media to around 50% confluency. Media was changed to growth media mixed with serially diluted compounds in DMSO (1:1000 dilution). After treatment for 24 hours, media was changed to 100 μL phenol red free DMEM and cell numbers were quantitated by using Vybrant® MTT Cell Proliferation Assay Kit (Molecular Probes). Ten μL of 12 mM MTT stock solution was added to each well and the microplate was incubated at 37° C. for 4 hours. Then 100 μL of the SDS-HCl solution was added to each well and mixed thoroughly using a pipette. The microplate was incubated at 37° C. for 4 hours in a cell culture incubator. The microplate was mixed again using a pipette and absorbance was read at 570 nm (Dynex MRX^e Magellan Biosciences). Effect of compounds on proliferation of human keratinocytes was calculated by % of DMSO vehicle control.

[3] = system: 3T3-L1 adipocytes; assay: Lipogenesis of 3T3-L1 adipocytes; type: cell-based; settings: Mus musculus, TG readout, read-out: LG-3T3 IC50
Procedure: 3T3-L1 fibroblast cells (Zen-Bio) were grown in 96-well culture microplate (Corning) with growth media to around 90-100% confluency. Culture media was changed to differentiation media (growth media supplemented with 3-Isobutyl-1-Methylxanthine 500 μM, Dexamethasone 1 μM, insulin 10 μg/mL, and rosiglitazone 2 μM) plus serially diluted compounds prepared in DMSO (1:1000 dilution). After incubation for 2 days, media was changed to maintenance media (growth media supplemented with insulin 10 μg/mL) plus serially diluted compounds prepared in DMSO (1:1000 dilution) for around 1 week with media changed every 2 days. Upon completion of the treatment, culture media are discarded and 200 μL 0.01% SDS was added to each well and shaken for 1 hour to lyse the cells. Cell lysates were then transferred to 400 μL Folch's solution (chloroform: methanol=2:1) and mixed well. After centrifuge at 2,000 rpm for 20 min, 200 μL of the lower organic phase was transferred to a plate with 10 μL sample buffer (chloroform:Triton-100=3:1). Samples were blown dried under nitrogen and 200 μL triglyceride (TG) quantification reagent (Thermo Fisher Scientific) was added, mixed, and incubated at 37° C. for 30 min. TG concentration was determined by reading absorbance at 535 nm (Dynex MRX^e Magellan Biosciences) and calculated from standard curve.

[4] = PK study in male C57 mouse for Examples 14 and 15; type: in vivo; settings: for concentration at 0.5 h: 0.50 h
Procedure: Pharmacokinetic studies were carried out with male C57 mouse. Compounds (Example 14 and Example 15) were each formulated in 5% DMSO+10% Solutol HS 15+85% Saline, and dosed at 1 mpk for IV injection (5 mL/kg) and 10 mpk for oral gavage (10 mUkg). Plasma samples at various time points were quantitated with LC-MS. Data reported were average of three mice.
Tables 1 and 2 below show plasma concentrations (ng/mL) and PK parameters of Example 14 in male C57 mouse after 1 mpk IV injection and 10 mpk PO gavage, respectively. The plasma concentration (ng/mL) of the acid compound, Example 15, was also measured and reported below.
Tables 3 and 4 below show plasma concentrations (ng/mL) and PK parameters of Example 15 in male C57 mouse after 1 mpk IV injection and 10 mpk PO gavage, respectively.

[5] = system: liver triglycerides (TG) in C57BL/6J mice; assay: Chronic treatment for reducing liver triglycerides in C57BL/6J mice; type: in vivo, mouse; settings: male C57BL/6J mice; 30 mg per kilogram body weight in PEG400, oral gavage once per day for 2 weeks; FIG. 1, vs vehicle
Procedure: Male C57BL/6J mice (Jackson Laboratory) at around 9 weeks of age were treated with vehicle (0.5% methylcellulose or PEG400) or Example 14 (30 mg per kilogram body weight, dosing solution prepared in PEG400) and Example 20 (20 mg per kilogram body weight, dosing solution prepared in 0.5% methylcellulose) by oral gavage at ˜9:00 am, once per day for 2 weeks. Concentrations of Example 14 and Example 20 were 15 mg/ml and 2 mg/ml, respectively. The dosing volumes of Example 14 and Example 20 were 2 ml per kilogram body weight and 10 ml per kilogram body weight, respectively. After 14-day treatment, animals were euthanized in CO2 at 2 hours post dose and liver was frozen and kept on dry ice. Liver TG was measured by extracting lipids with chloroform:methanol 2:1 (v/v) followed by quantitation with Infinity™ Triglycerides Reagent (Thermo Scientific).

[6] = male, C57, mouse, plasma, iv, 1 mg/kg, Example 14 dosed 1 mpk IV, analyte = labelled compound
[7] = male, C57, mouse, plasma, po, 10 mg/kg, Example 14 dosed 10 mpk PO gavage, analyte = labelled compound
[8] = plasma, 1 mg/kg, Example 14 dosed 1 mpk IV

For `CCc1ccc2c(c1)C(=O)OC1(CCN(C(=O)c3cc(OC)c4cccc(OC)c4n3)CC1)C2` [Example 4, 1′-(4,8-dimethoxyquinoline-2-carbonyl)-7-ethylspiro[isochroman-3,4′-piperidin]-1-one], the IC50 [1] was 11.3 nM, the IC50 [2] was 148 nM and the IC50 [3] was 27.7 nM.
With `COC(=O)c1cncc(-c2ccc3c(c2)C(=O)OC2(CCN(C(=O)c4cc(OC)c5cccc(OC)c5n4)CC2)C3)c1` [Example 14, methyl 5-(1′-(4,8-dimethoxyquinoline-2-carbonyl)-1-oxospiro[isochroman-3,4′-piperidin]-7-yl)nicotinate] the “Plasma Concentration, Mean” value ([4]; Example 14 dosed 1 mpk IV, 8.00 h, analyte = labelled compound) was “BLQ”, the “Plasma Concentration, Mean” value ([4]; Example 14 dosed 1 mpk IV, 24.00 h, analyte = labelled compound) was “BLQ” and the F ([4]; Example 14 dosed 10 mpk PO gavage) was 88%. The “Plasma Concentration, Mean” value ([4]; Example 14 dosed 10 mpk PO gavage, 24.00 h, analyte = labelled compound) was “BLQ”, the MRT ([4]; male, C57, mouse, plasma, iv, 1 mg/kg, Example 14 dosed 1 mpk IV) was 24.6 min and the concentration at 0.08 h ([4]; male, C57, mouse, plasma, iv, 1 mg/kg, Example 14 dosed 1 mpk IV, 0.08 h, analyte = labelled compound) was 1880 ng/mL. It also gave a concentration at 0.25 h [4, 6] of 1080 ng/mL, a concentration at 0.5 h [4, 6] of 521 ng/mL and a concentration at 1 h [4, 6] of 199 ng/mL. It also gave a concentration at 2 h [4, 6] of 30 ng/mL, a concentration at 4 h [4, 6] of 4.4 ng/mL and a concentration at 0.25 h [4, 7] of 3660 ng/mL. It also gave a concentration at 0.5 h [4, 7] of 5970 ng/mL, a concentration at 1 h [4, 7] of 3160 ng/mL and a concentration at 2 h [4, 7] of 1010 ng/mL. It also gave a concentration at 4 h [4, 7] of 345 ng/mL, a concentration at 8 h ([4]; male, C57, mouse, plasma, po, 10 mg/kg, Example 14 dosed 10 mpk PO gavage, 8.00 h, analyte = labelled compound) of 125 ng/mL and a Cmax [4, 7] of 6330 ng/mL. It also gave an MRT [4, 7] of 96 min, a Tmax [4, 7] of 25.2 min and a Vd [4, 8] of 0.49 L/kg. The clearance [4, 8] was 18.5 mL/min/kg, the half-life [4, 8] was 19.2 min and the “Liver TG” value [5] was “reduced liver triglycerides; also recorded: reduced liver TG”.
`CCc1ccc2c(c1)C(=O)OC1(CCN(C(=O)c3cc(OC)c4cccc(OC)c4c3)CC1)C2` [Example 3, 1′-(4,8-dimethoxy-2-naphthoyl)-7-ethylspiro[isochroman-3,4′-piperidin]-1-one] gave an IC50 [1] of 3.4 nM, an IC50 [2] of 44.4 nM and an IC50 [3] of 1.4 nM.
